Assay results taken from ChEMBL document CHEMBL5550185, “Targeting hTERT Promoter G-Quadruplex DNA Structures with Small-Molecule Ligand to Downregulate hTERT Expression for Triple-Negative Breast Cancer Therapy” (J Med Chem, 2024).
Calls of active or inactive are those of the source. The rule behind the calls is not given here.

Legend:
[1] = system: Quadruplex DNA; assay: Binding affinity to CKIT-2 G4 DNA (unknown origin) assessed as thermal stability by measuring change in melting temperature at 400 uM […]; format: nucleic-acid assay
[2] = molecular target: Quadruplex DNA; assay: Binding affinity to CKIT-2 G4 DNA (unknown origin) assessed as dissociation constant by ITC analysis; format: nucleic-acid assay
[3] = system: Quadruplex DNA; assay: Binding affinity to c-MYC Pu27 G4 DNA (unknown origin) assessed as thermal stability by measuring change in melting temperature at 400 uM […]; format: nucleic-acid assay
[4] = system: Quadruplex DNA; assay: Binding affinity to c-MYC Pu27 G4 DNA (unknown origin) assessed as change in enthalpy at 400 uM by ITC analysis; format: nucleic-acid assay
[5] = system: Quadruplex DNA; assay: Binding affinity to hTERT G4 DNA assessed as change in gibbs free energy at 400 uM by ITC analysis; format: nucleic-acid assay; settings: Homo sapiens
[6] = Selectivity ratio of binding affinity to human TERT G4 DNA to binding affinity to Telo21 G4 DNA (unknown origin)
[7] = Selectivity ratio of binding affinity to human TERT G4 DNA to binding affinity to Dt21 ssDNA (unknown origin)
[8] = system: Quadruplex DNA; assay: Binding affinity to human TERT G4 DNA assessed as adduct formation by measuring appearance of new peak at 5 uM by ultraviolet spectrophotometric titration method; format: nucleic-acid assay
[9] = Cytotoxicity against HUVEC cells assessed as inhibition of cell growth incubated for 48 hrs by MTT assay; format: toxicity, cell-based; settings: human
[10] = system: DNA; assay: Binding affinity to DNA in telomerase-positive live human MDA-MB-231 cells at 5 uM preincubated for 10 mins followed by washout and RNase A addition measured after 2 hrs by Hoechst 33342 staining based confocal microscopic analysis; format: cell-based
[11] = system: MDA-MB-231; assay: Downregulation of hTERT mRNA expression in human MDA-MB-231 cells measured after 48 hrs by qRT-PCR analysis; format: functional, cell-based; settings: dose 0-1.5 µM
[12] = system: MDA-MB-231; assay: Induction of DNA damage in human MDA-MB-231 cells assessed as upregulation of gamma-H2AX protein expression measured after 48 hrs by Western blot analysis; format: functional, cell-based; settings: dose 0-1.5 µM
[13] = system: MDA-MB-231; assay: Induction of oxidative stress in human MDA-MB-231 cells assessed as cellular DNA fragmentation at 0 to 1.5 uM measured after 48 hrs by comet assay; format: functional, cell-based; settings: dose 0-1.5 µM
[14] = system: MDA-MB-231; assay: Activation of apoptosis in human MDA-MB-231 cells assessed as upregulation of BAX protein expression measured after 48 hrs by Western blot analysis; format: functional, cell-based; settings: dose 0-1.5 µM
[15] = system: MDA-MB-231; assay: Induction of mitochondrial dysfunction in human MDA-MB-231 cells assessed as mitochondrial membrane potential impairment at 0 to 1.5 uM incubated for 48 hrs by Hoechst33342 staining based microscopic analysis; format: functional, cell-based; settings: dose 0-1.5 µM
[16] = system: MDA-MB-231; assay: Induction of mitochondrial phagocytosis in human MDA-MB-231 cells assessed as increase in autophagic vesicle formation measured after 48 hrs by MitoTracker Deep Red FM staining based live-cell confocal microscopic analysis; format: functional; settings: dose 0-1.5 µM
[17] = system: MDA-MB-231; assay: Downregulation of ND2 gene expression in human MDA-MB-231 cells at 1 uM measured after 48 hrs by RNA-seq analysis; format: functional, cell-based
[18] = system: MDA-MB-231; assay: Downregulation of ND3 gene expression in human MDA-MB-231 cells at 1 uM measured after 48 hrs by RNA-seq analysis; format: functional, cell-based
[19] = system: MDA-MB-231; assay: Downregulation of ND4 gene expression in human MDA-MB-231 cells at 1 uM measured after 48 hrs by RNA-seq analysis; format: functional, cell-based
[20] = Upregulation of PLK2 gene expression in human MDA-MB-231 cells assessed as fold change at 1 uM measured after 48 hrs by RNA-seq analysis relative to control; format: functional
[21] = Upregulation of TNFSF10 gene expression in human MDA-MB-231 cells assessed as fold change at 1 uM measured after 48 hrs by RNA-seq analysis relative to control; format: functional
[22] = Upregulation of KLF2 gene expression in human MDA-MB-231 cells assessed as fold change at 1 uM measured after 48 hrs by RNA-seq analysis relative to control; format: functional
[23] = Upregulation of HLA-B gene expression in human MDA-MB-231 cells assessed as fold change at 1 uM measured after 48 hrs by RNA-seq analysis relative to control; format: functional
[24] = Upregulation of HLA-C gene expression in human MDA-MB-231 cells assessed as fold change at 1 uM measured after 48 hrs by RNA-seq analysis relative to control; format: functional
[25] = Upregulation of CCND2 gene expression in human MDA-MB-231 cells assessed as fold change at 1 uM measured after 48 hrs by RNA-seq analysis relative to control; format: functional
[26] = Upregulation of FTL gene expression in human MDA-MB-231 cells assessed as fold change at 1 uM measured after 48 hrs by RNA-seq analysis relative to control; format: functional
[27] = Upregulation of SAT1 gene expression in human MDA-MB-231 cells assessed as fold change at 1 uM measured after 48 hrs by RNA-seq analysis relative to control; format: functional
[28] = Upregulation of SAT2 gene expression in human MDA-MB-231 cells assessed as fold change at 1 uM measured after 48 hrs by RNA-seq analysis relative to control; format: functional
[29] = Upregulation of MAP1LC3B gene expression in human MDA-MB-231 cells assessed as fold change at 1 uM measured after 48 hrs by RNA-seq analysis relative to control; format: functional
[30] = Toxicity in female Balb/c nude mouse xenografted with human MDA-MB-231 cells assessed as signs of pain at 2 to 5 mg/kg, iv administered via tail vein every 2 days for 16 days; format: organism-based; settings: in vivo, 384 h, dose 2-5 mg/kg, time 16 day
[31] = system: MDA-MB-231; assay: Antitumor activity against human MDA-MB-231 cells xenografted in female Balb/c mouse assessed as inhibition of tumor cell proliferation at 5 mg/kg, iv administered via tail vein every 2 days for 16 days by TUNEL assay; format: functional, organism-based; settings: time 16.0 day
[32] = Toxicity in female Balb/c nude mouse xenografted with human MDA-MB-231 cells assessed as change in granulocyte count at 2 to 5 mg/kg, iv administered via tail vein every 2 days for 16 days; format: organism-based; settings: in vivo, 384 h, dose 2-5 mg/kg, time 16 day
[33] = Toxicity in female Balb/c nude mouse xenografted with human MDA-MB-231 cells assessed as change in RBC count at 2 to 5 mg/kg, iv administered via tail vein every 2 days for 16 days; format: organism-based, Erythrocyte; settings: in vivo, 384 h, dose 2-5 mg/kg, time 16 day
[34] = Toxicity in female Balb/c nude mouse xenografted with human MDA-MB-231 cells assessed as change in mean corpuscular hemoglobin concentration at 2 to 5 mg/kg, iv administered via tail vein every 2 days for 16 days; format: organism-based; settings: in vivo, 384 h, dose 2-5 mg/kg, time 16 day
[35] = Toxicity in female Balb/c nude mouse xenografted with human MDA-MB-231 cells assessed as pathological changes in heart at 2 to 5 mg/kg, iv administered via tail vein every 2 days for 16 days by H and E staining based analysis; format: organism-based; settings: in vivo, 384 h, dose 2-5 mg/kg, time 16 day
[36] = Toxicity in female Balb/c nude mouse xenografted with human MDA-MB-231 cells assessed as pathological changes in lung at 2 to 5 mg/kg, iv administered via tail vein every 2 days for 16 days by H and E staining based analysis; format: organism-based; settings: in vivo, 384 h, dose 2-5 mg/kg, time 16 day

## C[n+]1c(/C=C/c2c[nH]c3ccccc23)cc(/C=C2\Sc3ccccc3N2CCCN2CCC(C(F)(F)F)CC2)c2ccccc21.[I-]
[1]
  ΔTm: 2.45 °C
[2]
  Kd: 6.8 µM
[3]
  ΔTm: 2.59 °C
[4]
  deltaH: -2.44 kcal/mol
[5]
  deltaG: -8.11 kcal/mol
[6]
  Selectivity ratio: 2
[7]
  Selectivity ratio: 18
[8]
  Activity: Active
[9]
  IC50 at 48 h: 8.7 µM
[10]
  Activity: Active
[11]
  Activity: Dose-Dependent Effect
[12]
  Activity: Dose-Dependent Effect
[13]
  Activity: Active
[14]
  Activity: Dose-Dependent Effect
[15]
  Activity: Active
[16]
  Activity: Active
[17]
  Activity: Active
[18]
  Activity: Active
[19]
  Activity: Active
[20]
  fold change (FC): >2
[21]
  fold change (FC): >2
[22]
  fold change (FC): >2
[23]
  fold change (FC): >2
[24]
  fold change (FC): >2
[25]
  fold change (FC): >2
[26]
  fold change (FC): >2
[27]
  fold change (FC): >2
[28]
  fold change (FC): >2
[29]
  fold change (FC): >2
[30]
  Activity: Non-Toxic
[31]
  Activity: Active
[32]
  Activity: Non-Toxic
[33]
  Activity: Non-Toxic
[34]
  Activity: Non-Toxic
[35]
  Activity: Non-Toxic
[36]
  Activity: Non-Toxic
